The results in this text go back to patent publication US12134769B2, “MicroRNA-198 as a tumor suppressor in ovarian cancer” (Baylor College of Medicine, priority 2011, dated 2024).

Where only a bound is given, the exact number is not on record here.

The test system of one data set is PBX-1 3′UTR. In words: Dual-luciferase reporter assay, PBX-1 3′UTR. As to conditions: following miR-198 transfection/overexpression; firefly/Renilla ratio, 24 h. The format is cell-based. The method, then: A luciferase construct containing the first 491 bases of the PBX-1 3′UTR was purchased from Switchgear Genomics. Two mutant PBX-1 3′UTR reporters were subsequently generated using the Stratagene Quickchange Site-directed Mutagenesis kit, with the WT miR-198 binding site seed region either altered from TCTGGA to AAGCTT (a HindIII restriction site) or deleted entirely (FIG. 10).
Dual luciferase assays were performed according to the manufacturer's instruction. Luciferase expression analysis was performed at 24 h using the Dual-luciferase kit (Promega) and Sirius Luminometer (Berthold Detection System). Results are presented as the ratio of firefly to Renilla luciferase activities, normalized to controls.
The PBX-1 3′UTR region was cloned into the pSGG-3UTR vector (based on pGL4.11 vector with a MCS added after luciferase) after the reporter gene, firefly luciferase, whose expression is regulated by the SV40 promoter. A separate reporter for Renilla luciferase under the control of the CMV promoter was utilized to normalize for transfection efficiency. The identity of the 3′UTR sequence including the predicted miR-198 binding site was confirmed using the following primers: Fwd: […] [SEQ ID NO. 111], Rev: […]. [SEQ ID NO. 112]
Background: In a reporter assay the amount or activity of a reporter protein is the signal.

The next data set concerns COS-7 cells. In words: Co-transfection with MSLN ORF construct, western blot. As to conditions: COS-7 cells co-transfected with WT MSLN plasmid and miR-198 precursors. The class given is cell-based. The text has this: A MSLN ORF clone was purchased from Origene (RC202532). Site-directed mutagenesis was used to generate constructs containing silent mutations in each of the three predicted miR-198 binding sites within the CDS of the MSLN gene (FIG. 13). MiR-198 precursors or a scrambled miRNA control were co-transfected into COS-7 cells along with either the WT MSLN ORF construct or each of the single, double, or triple mutants. Cell lysates were collected for western blot analysis. RNA and miRNA were collected for real-time RT-PCR analysis.

Data set [1] deals with AsPC1 cells. Put plainly: Migration, modified Boyden chamber assay. The format is cell-based, human. The note with it: stable miR-198 overexpression in AsPC1 cells, FIG. 14D. How it is done:
(§1) Cell migration was determined with a modified Boyden chamber assay as described previously (Li et al., 2008). For invasion assays, Matrigel basement membrane matrix (BD Biosciences) was used by adding 100 ul of 1 mg/ml Matrigel to the migration chamber inserts prior to plating of the cells (Li et al., 2008, Bharadwaj).

In data set [2] the test system is MIA-MSLN cells. Put plainly: Migration, modified Boyden chamber assay. The format is cell-based, human. The method, then: as §1
Data set [3] concerns AsPC1 cells. Put plainly: Invasion assay across Matrigel. The format is cell-based, human. As to conditions: AsPC1 cells following miR-198 overexpression. How it is done: as §1
(§2) An invasion assay was performed as described for the migration assay. For invasion, Matrigel basement membrane matrix (BD Biosciences) was used by adding 100 μl of 1 mg/ml Matrigel to the migration chamber inserts prior to plating of the cells.

Data set [4] has as its system MIA-MSLN cells. Put plainly: Invasion assay across Matrigel. The format is cell-based, human. The note with it: 36 h after miR-198 precursor transfection. How it is done: as §1, §2
The subject of data set [5] is MIA-MSLN cells. Put plainly: Apoptosis assay (TUNEL, caspase 3 western) after TNF-α. The format is cell-based, human. The method, then: (§3) Apoptosis induction was determined using western blotting for Caspase 3 cleavage and confirmed by labeling DNA breaks using a terminal deoxynucleotidyltransferase dUTP nick end labeling (TUNEL) assay with the APO-DIRECT Kit (BD Biosciences) following 96 h of treatment (24 h serum starvation followed by 72 h of treatment with 20 ng/ml of TNF-α). Briefly, cells were plated in either 10% FBS media or serum-starved for 96 h, at which time 1×10^6 cells were harvested using trypsin-EDTA. After centrifugation, the pellets were washed twice with PBS, then resuspended in 1% paraformaldehyde in PBS and incubated on ice for 45 minutes. After several washes, the cell pellet again was resuspended in PBS/ethanol, incubated on ice for 30 minutes, and stored at −20° C. Cell samples were then pelleted, washed, and resuspended in 50 μL of DNA labeling solution containing a reaction buffer, terminal deoxynucleotidyl transferase enzyme, FITC-labeled deoxyuridine triphosphate nucleotides, and distilled water. After a 60-minute incubation at 37° C., cells were again washed, pelleted, and resuspended in 500 μl of propidium iodine/RNase staining buffer. Samples were then analyzed by flow cytometry (fluorescence-activated cell sorting) using a FACSCalibur (Becton Dickinson, Franklin Lakes, NJ). Data was further analyzed using the software FLOWJOW ver. 6.1.1 (Tree Star Inc.).

The test system of data set [6] is AsPC1 cells. Put plainly: Apoptosis assay (TUNEL) after TNF-α. The class given is cell-based, human. The note with it: AsPC1-miR-198 cells, TUNEL after TNF-α treatment. The method, then: as §3
For a further data set, the system named is MIA-V cells. Put plainly: Apoptosis assay (TUNEL) after TNF-α. The class given is cell-based, human. The note with it: TUNEL after TNF-α treatment. How it is done: as §3
In data set [7] the test system is MIA-MSLN cells. Put plainly: Orthotopic pancreatic cancer mouse model. The format is in vivo, nude mice. How it is done: All animal procedures were conducted under the guidelines approved by the Institutional Animal Care and Use Committee (IACUC). Cells (3×10^6) were inoculated into the right flank (s.c. model) or into the pancreas (orthotopic model) of 5 to 6-week-old male nude mice (NCI-Charles River) as previously described (Li et al., 2007). Tumor size was measured using a digital caliper and tumor volume was determined with the following formula: tumor volume (mm^3)=[length (mm)]×[width (mm)]2×0.52. For the orthotopic model, after 4 weeks all surviving mice were euthanized and evaluated macroscopically for the presence of orthotopic tumor and metastases in the abdominal cavity. Tumor spread was further visualized using a fluorescent filter to view GFP expression. The tumor nodules were explanted, counted, and weighed. Tumor tissues were stored in RNAse Later solution (Ambion) in −80° for subsequent RNA/miRNA isolation and analysis.

As for “miR-198: microRNA-198, SEQ ID NO: 1 gguccagaggggagauagg; used as transfected precursors (Ambion) or Lenti-miR stable overexpression (GGUCCAGAGGGGAGAUAGG; listed as RNA, chemistry not given here; listed as Homo sapiens)”, the “reduction in PBX-1 3′UTR luciferase expression” value in the data set on PBX-1 3′UTR was determined as 65%. In the data set on COS-7 cells, the “expression of WT MSLN protein” value is “abolished expression of the WT MSLN protein”. Besides, the migration reduced with AsPC1 cells [1] is on record as 33%; in the data set with AsPC1 cells [1] (listed as MiR-198), > 50%; in the data set with MIA-MSLN cells [2] (36 h after transient miR-198 transfection) it was 44%; in the data set with MIA-MSLN cells [2] (stable miR-198 overexpression, after 48 h), ~40%. The invasion decreased in the data set on AsPC1 cells [3] is ~50%. In addition, the invasion reduced in the data set on MIA-MSLN cells [4] was found to be 24%. Besides, the “increase in number of cells undergoing apoptosis over controls” value with MIA-MSLN cells [5] (MIA-MSLN-miR-198 cells, TUNEL after TNF-α treatment) is listed as > 60%; with AsPC1 cells [6] it was > 90%. The “caspase 3 cleavage” value in the data set with MIA-MSLN cells [5] (overexpression of miR-198 in MIA-MSLN cells, western blot) is on record as “results in caspase 3 cleavage”. For the same substance, in the data set with MIA-V cells, the apoptotic cells is given as ~75%. Further, the “average primary tumor weight” value in the data set on MIA-MSLN cells [7] (orthotopic MIA-MSLN-miR-198 cells, after 4 weeks) was 0.06 g. Further, in the data set on MIA-MSLN cells [7] (orthotopic MIA-MSLN-miR-198 injected mice, 8 mice), the metastases entry is recorded as “Four of the eight mice had no metastases”. Moreover, the “jaundice, weight loss, and abdominal ascitic fluid” value with MIA-MSLN cells [7] (orthotopic, mice injected with high miR-198 cells) was “none of the mice injected with high miR-198 cells had these symptoms”.
